Source: patent publication US9156801B2, “2-substituted oleanolic acid derivative, method preparing for same, and application thereof” (HANGZHOU BENSHENG PHARMACEUTICAL CO., LTD., priority 2011, dated 2015)
Values after ≈ are worked out from the molar mass of the structure shown.

Columns and labels:
H9 cell line = assay: leukemia cell growth inhibition, MTT; assay type: cell-based; conditions: Homo sapiens; for IC50: H9, 72 h; for inhibition at 16 µg/mL: H9, 16 μg/mL compound, 72 h, read-out: IR (cell proliferation inhibition rate)
Excerpt: (§1) Leukemia cell lines: leukemia cell lines: K562/adr (drug-resistant, chronic myeloid leukemia, CML), NB4 (acute promyelocytic leukemia, AML), Kasumi-1 (acute myeloid leukemia M2 type, AML-M2), Jurkat (acute lymphoblastic leukemia, ALL), all of which are donated by Cancer Research Institute of Zhejiang University, China; and H9 (acute lymphoblastic leukemia, ALL), which is purchased from China Center for Type Culture Collection (CCTCC).
(§2) Obtaining 6000 well-growing leukemia cells and inoculating them into wells of a 96-well cell culture plate. The culture medium is the 1640 cell culture medium containing 10% fetal bovine serum. After adding the 2-substituted oleanolic acid derivatives of different concentrations and mixing uniformly, placing the plate in a carbon dioxide cell incubator (5% CO2) at 37° C. and incubated for 72 hours. Then the relative number of viable cells is determined by MTT method. In this experiment, cell proliferation inhibition rate in control group (not treated with any compound) is set as 0%.

Jurkat cell line = assay: leukemia cell growth inhibition, MTT; assay type: cell-based; conditions: Homo sapiens, 72 h; for inhibition at 16 µg/mL: 16 μg/mL compound, read-out: IR (cell proliferation inhibition rate)
Excerpt: as §1, §2

K562/adr cell line = assay: leukemia cell growth inhibition, MTT; assay type: cell-based; conditions: Homo sapiens, 72 h; for IC50: K562/Adr; for inhibition at 16 µg/mL: K562/adr, 16 μg/mL compound, read-out: IR (cell proliferation inhibition rate)
Excerpt: as §1, §2

Kasumi-1 cell line = assay: leukemia cell growth inhibition, MTT; assay type: cell-based; conditions: Homo sapiens; for inhibition at 16 µg/mL: Kasumi-1, 16 μg/mL compound, 72 h, read-out: IR (cell proliferation inhibition rate); for IC50: Kasumi-1, 72 h
Excerpt: as §1, §2

NB4 cell line = assay: leukemia cell growth inhibition, MTT; assay type: cell-based; conditions: Homo sapiens, NB-4; for inhibition at 16 µg/mL: NB4, 16 μg/mL compound, 72 h, read-out: IR (cell proliferation inhibition rate); for IC50: NB4, 72 h
Excerpt: as §1, §2

RPMI8226 cell line = assay: multiple myeloma cell growth inhibition, MTT; assay type: cell-based; conditions: Homo sapiens, RPMI-8226; for inhibition at 16 µg/mL: RPMI8226, 16 μg/mL compound, 72 h, read-out: IR (cell proliferation inhibition rate); for IC50: RPMI8226, 72 h
Description: Multiple myeloma cell lines: RPMI8226 (multiple myeloma), purchased from Fuxiang Bio-tech Co. Ltd., Shanghai, China.
Obtaining 6000 well-growing cells as above and inoculating them into wells of a 96-well cell culture plate. The culture medium is the 1640 cell culture medium containing 10% fetal bovine serum. After adding the 2-substituted oleanolic acid derivatives of different concentrations and mixing uniformly, placing the plate in a carbon dioxide cell incubator (5% CO2) at 37° C. and incubated for 72 hours. Then the relative number of viable cells is determined by MTT method. In this experiment, cell proliferation inhibition rate in control group (not treated with any compound) is set as 0%.

Hep G2 cell line = assay: solid tumor cell growth inhibition, MTT; assay type: cell-based, human; conditions: Homo sapiens; for inhibition at 16 µg/mL: HepG2, 72 h, Hep G2, 16 μg/mL compound, 72 h, read-out: IR (cell proliferation inhibition rate); for IC50: HepG2, Hep G2, 72 h
Description: (§3) Hep-2 (laryngeal carcinoma), A549 (human lung cancer), CaES-17 (esophageal cancer cell), PC-3 (prostate cancer), CNE (nasopharyngeal carcinoma cell), and SK-OV-3 (ovarian cancer cell), all of which are purchased from China Center For Type Culture Collection; RKO (human colon adenocarcinoma cell), MGC 803 (human gastric cancer cell), MG63 (osteosarcoma) and U87 MG (malignant glioma cell), all of which are purchased from Fuxiang Bio-tech Co. Ltd., Shanghai, China; PANC-1 (pancreatic cancer), Hep G2 (human liver cancer cell), Becap37 (human breast cancer cell), and Hela (human cervical cancer cell), all of which are donated by Cancer Research Institute of Zhejiang University, China.
(§4) Obtaining 4000 well-growing human solid tumor cells and inoculating them into wells of a 96-well cell culture plate. The culture medium is DMEM High Glucose cell culture medium containing 10% fetal bovine serum. The plate is placed in a carbon dioxide cell incubator (5% CO2) at 37° C. for 24 hours. After adding the 2-substituted oleanolic acid derivatives of different concentrations and mixing uniformly, the plate is placed in a carbon dioxide cell incubator (5% CO2) at 37° C. and incubated for 72 hours. Then the relative number of the living cells is determined by MTT method. In this experiment, the cell proliferation inhibition rate in control group (not treated with any compound) is set as 0%.

A549 cell line = assay: solid tumor cell growth inhibition, MTT; assay type: cell-based; conditions: Homo sapiens; for IC50: A549, 72 h; for inhibition at 16 µg/mL: A549, 16 μg/mL compound, 72 h, read-out: IR (cell proliferation inhibition rate)
Description: as §3, §4

Becap37 cell line = assay: solid tumor cell growth inhibition, MTT; assay type: cell-based; conditions: Homo sapiens; for inhibition at 16 µg/mL: Becap37, 16 μg/mL compound, 72 h, read-out: IR (cell proliferation inhibition rate); for IC50: Becap37, 72 h
Description: as §3, §4

CNE cell line = assay: solid tumor cell growth inhibition, MTT; assay type: cell-based; conditions: Homo sapiens, 72 h; for inhibition at 16 µg/mL: 16 μg/mL compound, read-out: IR (cell proliferation inhibition rate)
Description: as §3, §4

CaES-17 cell line = assay: solid tumor cell growth inhibition, MTT; assay type: cell-based; conditions: Homo sapiens, CaEs17; for inhibition at 16 µg/mL: CaES-17, 16 μg/mL compound, 72 h, read-out: IR (cell proliferation inhibition rate); for IC50: CaES-17, 72 h
Description: as §3, §4

Hela cell line = assay: solid tumor cell growth inhibition, MTT; assay type: cell-based; conditions: Homo sapiens, 72 h; for IC50: HeLa; for inhibition at 16 µg/mL: Hela, 16 μg/mL compound, read-out: IR (cell proliferation inhibition rate)
Description: as §3, §4

Hep-2 cell line = assay: solid tumor cell growth inhibition, MTT; assay type: cell-based; conditions: Homo sapiens; for IC50: HEp-2, 72 h; for inhibition at 16 µg/mL: Hep-2, 16 μg/mL compound, 72 h, read-out: IR (cell proliferation inhibition rate)
Description: as §3, §4

MG-63 cell line = assay: solid tumor cell growth inhibition, MTT; assay type: cell-based; conditions: Homo sapiens; for IC50: MG-63, 72 h; for inhibition at 16 µg/mL: MG-63, 16 μg/mL compound, 72 h, read-out: IR (cell proliferation inhibition rate)
Description: as §3, §4

MGC 803 cell line = assay: solid tumor cell growth inhibition, MTT; assay type: cell-based; conditions: Homo sapiens; for inhibition at 16 µg/mL: MGC 803, 16 μg/mL compound, 72 h, read-out: IR (cell proliferation inhibition rate); for IC50: MGC 803, 72 h
Description: as §3, §4

PANC-1 cell line = assay: solid tumor cell growth inhibition, MTT; assay type: cell-based; conditions: Homo sapiens; for IC50: PANC-1, 72 h; for inhibition at 16 µg/mL: PANC-1, 16 μg/mL compound, 72 h, read-out: IR (cell proliferation inhibition rate)
Description: as §3, §4

PC-3 cell line = assay: solid tumor cell growth inhibition, MTT; assay type: cell-based; conditions: Homo sapiens; for IC50: PC-3, 72 h; for inhibition at 16 µg/mL: PC-3, 16 μg/mL compound, 72 h, read-out: IR (cell proliferation inhibition rate)
Description: as §3, §4

RKO cell line = assay: solid tumor cell growth inhibition, MTT; assay type: cell-based; conditions: Homo sapiens, 72 h; for inhibition at 16 µg/mL: 16 μg/mL compound, read-out: IR (cell proliferation inhibition rate)
Description: as §3, §4

SK-OV-3 cell line = assay: solid tumor cell growth inhibition, MTT; assay type: cell-based; conditions: Homo sapiens; for IC50: SK-OV-3, 72 h; for inhibition at 16 µg/mL: SK-OV-3, 16 μg/mL compound, 72 h, read-out: IR (cell proliferation inhibition rate)
Description: as §3, §4

U87 MG cell line = assay: solid tumor cell growth inhibition, MTT; assay type: cell-based; conditions: Homo sapiens, U-87 MG, 72 h; for inhibition at 16 µg/mL: 16 μg/mL compound, read-out: IR (cell proliferation inhibition rate)
Description: as §3, §4

SMILES | IC50 (H9 cell line) [µg/mL] | inhibition at 16 µg/mL (H9 cell line) [%] | inhibition at 16 µg/mL (Jurkat cell line) [%] | IC50 (Jurkat cell line) [µg/mL] | IC50 (K562/adr cell line) [µg/mL] | inhibition at 16 µg/mL (K562/adr cell line) [%] | inhibition at 16 µg/mL (Kasumi-1 cell line) [%] | IC50 (Kasumi-1 cell line) [µg/mL] | inhibition at 16 µg/mL (NB4 cell line) [%] | IC50 (NB4 cell line) [µg/mL] | inhibition at 16 µg/mL (RPMI8226 cell line) [%] | IC50 (RPMI8226 cell line) [µg/mL] | inhibition at 16 µg/mL (Hep G2 cell line) [%] | IC50 (Hep G2 cell line) [µg/mL] | IC50 (A549 cell line) [µg/mL] | inhibition at 16 µg/mL (A549 cell line) [%] | inhibition at 16 µg/mL (Becap37 cell line) [%] | IC50 (Becap37 cell line) [µg/mL] | inhibition at 16 µg/mL (CNE cell line) [%] | IC50 (CNE cell line) [µg/mL] | further results
CCN(CC)CCCNC(=O)C1C[C@]2(C)[C@H]3CC=C4[C@@H]5CC(C)(C)CC[C@]5(C(=O)OC)CC[C@@]4(C)[C@]3(C)CC[C@H]2C(C)(C)C1=O (some centres unmarked) [BS-OA-035] | 2.67 (≈ 4.27 µM) | 97.5 | 96.6 | 1.67 (≈ 2.67 µM) | 0.68 (≈ 1.09 µM) | 99.6 | 97 | 3.95 (≈ 6.32 µM) | 99.8 | 2.96 (≈ 4.74 µM) | 99.1 | 0.61 (≈ 0.976 µM) | > 96 | 1.94 (≈ 3.1 µM) | 2.02 (≈ 3.23 µM) | 97.3 | 98.6 | 5.2 (≈ 8.32 µM) | 99 | 3.64 (≈ 5.82 µM) | inhibition at 16 µg/mL (CaES-17 cell line): 98%; IC50 (CaES-17 cell line): 2.74 µg/mL (≈ 4.38 µM); IC50 (Hela cell line): 3.11 µg/mL (≈ 4.98 µM); inhibition at 16 µg/mL (Hela cell line): 98.1%; IC50 (Hep-2 cell line): 5.34 µg/mL (≈ 8.54 µM); inhibition at 16 µg/mL (Hep-2 cell line): 98.5%; IC50 (MG-63 cell line): 1.62 µg/mL (≈ 2.59 µM); inhibition at 16 µg/mL (MG-63 cell line): 100%; inhibition at 16 µg/mL (MGC 803 cell line): 98.9%; IC50 (MGC 803 cell line): 2.56 µg/mL (≈ 4.1 µM); IC50 (PANC-1 cell line): 4.89 µg/mL (≈ 7.82 µM); inhibition at 16 µg/mL (PANC-1 cell line): 99.8%; IC50 (PC-3 cell line): 5 µg/mL (≈ 8 µM); inhibition at 16 µg/mL (PC-3 cell line): 98.5%; inhibition at 16 µg/mL (RKO cell line): 97.2%; IC50 (RKO cell line): 2.39 µg/mL (≈ 3.82 µM); IC50 (SK-OV-3 cell line): 3.72 µg/mL (≈ 5.95 µM); inhibition at 16 µg/mL (SK-OV-3 cell line): 98.6%; inhibition at 16 µg/mL (U87 MG cell line): 97.1%; IC50 (U87 MG cell line): 2.7 µg/mL (≈ 4.32 µM)
COC(=O)[C@]12CCC(C)(C)CC1C1=CCC3[C@@]4(C)CC(C(=O)NCCN5CCCC5)C(=O)C(C)(C)C4CC[C@@]3(C)[C@]1(C)CC2 (some centres unmarked) [BS-OA-005] | 3.16 (≈ 5.19 µM) | 96.2 | 98.1 | 2.33 (≈ 3.83 µM) | 1.16 (≈ 1.91 µM) | 100 | 99.8 | 3.98 (≈ 6.54 µM) | 100 | 2.73 (≈ 4.48 µM) | 99.2 | 0.69 (≈ 1.13 µM) | > 96 | 2.53 (≈ 4.15 µM) | 2.19 (≈ 3.6 µM) | 96.8 | 98.6 | 5.68 (≈ 9.33 µM) | 98.6 | 3.65 (≈ 5.99 µM) | inhibition at 16 µg/mL (CaES-17 cell line): 98.9%; IC50 (CaES-17 cell line): 3.34 µg/mL (≈ 5.49 µM); IC50 (Hela cell line): 4.05 µg/mL (≈ 6.65 µM); inhibition at 16 µg/mL (Hela cell line): 98.6%; IC50 (Hep-2 cell line): 5.09 µg/mL (≈ 8.36 µM); inhibition at 16 µg/mL (Hep-2 cell line): 99.2%; IC50 (MG-63 cell line): 2.31 µg/mL (≈ 3.79 µM); inhibition at 16 µg/mL (MG-63 cell line): 99.7%; inhibition at 16 µg/mL (MGC 803 cell line): 99.3%; IC50 (MGC 803 cell line): 2.7 µg/mL (≈ 4.43 µM); IC50 (PANC-1 cell line): 4.54 µg/mL (≈ 7.46 µM); inhibition at 16 µg/mL (PANC-1 cell line): 97.8%; IC50 (PC-3 cell line): 5.11 µg/mL (≈ 8.39 µM); inhibition at 16 µg/mL (PC-3 cell line): 99.2%; inhibition at 16 µg/mL (RKO cell line): 98.7%; IC50 (RKO cell line): 3.19 µg/mL (≈ 5.24 µM); IC50 (SK-OV-3 cell line): 4.23 µg/mL (≈ 6.95 µM); inhibition at 16 µg/mL (SK-OV-3 cell line): 98.3%; inhibition at 16 µg/mL (U87 MG cell line): 100%; IC50 (U87 MG cell line): 2.5 µg/mL (≈ 4.11 µM)
